US4267192A, “Method for treating inflammation” (priority 1980, dated 1981)
Where two headings read alike, the source gives them in different places.

Tests used:
[1] = system: carrageenan-induced edema in the hind paw of the rat; test: rat carrageenan edema test (hind paw); type: in vivo, rat (male Sprague-Dawley); conditions: for Change in paw volume (ml) from 0-3 hr: mean ± S.E.; for % Change in paw edema: vs control
Procedure: (§1) Vehicle alone is administered as a control. Sixty minutes after drug administration edema is induced by an injection of 0.1 ml. of a 1% carrageenan solution is saline into the subplantar tissue of the rat's right hind paw. Two minutes later, paw volume is measured volumetrically with a plethysmograph and again 3 hours later. The mean volume of swelling for the control group is calculated and compared to the test groups. Percent change in paw edema is calculated and analyzed statistically (unpaired, Student's t-test).

prostaglandin synthetase = target: T1, prostaglandin synthetase (Ovis aries, UniProt P05979); conditions: in words; cited from earlier work
T1 sequence (P05979 25-600): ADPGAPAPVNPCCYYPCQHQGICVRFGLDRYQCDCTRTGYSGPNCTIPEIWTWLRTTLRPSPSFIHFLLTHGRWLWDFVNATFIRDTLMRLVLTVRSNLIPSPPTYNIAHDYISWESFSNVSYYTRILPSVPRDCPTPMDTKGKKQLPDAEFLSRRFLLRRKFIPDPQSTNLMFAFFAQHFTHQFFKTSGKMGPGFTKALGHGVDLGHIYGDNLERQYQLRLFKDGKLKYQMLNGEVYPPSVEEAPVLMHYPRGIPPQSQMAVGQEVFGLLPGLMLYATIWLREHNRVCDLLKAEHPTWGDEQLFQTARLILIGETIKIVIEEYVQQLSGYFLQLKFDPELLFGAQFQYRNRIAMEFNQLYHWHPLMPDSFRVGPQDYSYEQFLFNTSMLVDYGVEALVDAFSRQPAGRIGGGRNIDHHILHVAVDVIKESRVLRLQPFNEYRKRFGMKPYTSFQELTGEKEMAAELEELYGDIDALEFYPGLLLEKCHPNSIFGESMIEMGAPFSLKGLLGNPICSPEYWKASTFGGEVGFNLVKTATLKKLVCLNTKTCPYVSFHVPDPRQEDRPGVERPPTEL

[2] = system: rat stomach (gastric ulcers, gastric swelling); conditions: especially in long-term therapy; in words; cited from earlier work
[3] = system: polyarthritis induced by Mycobacterium butyricum or tuberculosis in rats; conditions: rat; for Increase in Left Paw Volume (ml.) 0-16 days / Increase in Right Paw Volume (ml.) 0-4 days: mean ± S.E.
Procedure: (§2) Polyarthritis is induced in groups of 6-10 Sprague-Dawley rats weighing between 180-220 g. by a subcutaneous injection into the right paw of dessicated Mycobacterium butyricum or tuberculosis (0.5 mg/0.1 ml.) suspended in light mineral oil. […] Both hind paw volumes (ml.) are measured by mercury plethysmograph on day 0 or at the time of injection of the complete adjuvant. Increases in paw volume (viz. edema) are determined for both paws on days 4 and 16. The change in body weight from day 0 to day 16 is also calculated. Statistical analysis of differences in paw edemas and body weight is performed by using the unpaired. Student's t-test.

[4] = system: established adjuvant arthritis in rats; test: established adjuvant arthritis, dosing on days 16, 17 and 18; conditions: rat
Procedure: as §2
The changes in left paw edema are measured at the end of 19 days, 23 days and 30 days.

[5] = system: carrageenan-induced edema in the hind paw of normal and adrenalectomized rats; test: carrageenan paw edema in normal and adrenalectomized rats; type: in vivo, rat
Procedure: as §1
Normal rats received the same doses as adrenalectomized rats.

[6] = system: prostaglandin synthesis in gastric mucosa; conditions: background; in words; cited from earlier work
[7] = system: rat stomach (gastric ulcers, gastric swelling); type: in vivo, rat (male Charles River, Sprague-Dawley); conditions: for Number of Animals With Gastric Swelling / Number of Animals With Gastric Ulcers: rat, 4 hours after dosing
Procedure: The rats are divided into groups 6-10 and dosed by the oral route with test compound, on a mg/kg. body weight basis, or vehicle control, 0.5% carboxymethylcellulose, in a volume of 3 ml. per rat. Four hours after dosing, the rats are decapitated and exsanguinated. Stomachs are removed and examined for gastric swelling and then opened and washed for visual inspection of gastric ulcers. Only one lesion or gastric bleeding is necessary for a positive response. Data is reported quantally.

[8] = background; in words; cited from earlier work
[9] = system: polyarthritis induced by Mycobacterium butyricum or tuberculosis in rats; conditions: rat; cited from earlier work
[10] = oral 0.1 mg/kg daily, Table 3 group a
[11] = oral 0.3 mg/kg daily, Table 3 group a
[12] = oral 1.0 mg/kg daily, Table 3 group a
[13] = oral 3.0 mg/kg daily, Table 3 group a
[14] = oral 0.33 mg/kg, days 16, 17, 18
[15] = oral 1.00 mg/kg, days 16, 17, 18
[16] = oral 3.00 mg/kg, days 16, 17, 18
[17] = Adrenalectomized Rats, oral 5 mg/kg
[18] = oral 25.0 mg/kg daily, Table 3 group b
[19] = oral 270 mg/kg, Table 1 group d
[20] = Adrenalectomized Rats, oral 300 mg/kg
[21] = oral 120 mg/kg, Table 1 group f
[22] = oral 240 mg/kg, Table 1 group f
[23] = oral 480 mg/kg, Table 1 group f
[24] = oral 180 mg/kg, Table 1 group e

COc1ccc2c(c1)c(CC(=O)O)c(C)n2C(=O)c1ccc(Cl)cc1 [Indomethacin, indomethacin, reference compound]
estimated ED50 (carrageenan paw edema) ([1]; oral): ~2.7 mg/kg
Change in paw volume (ml) from 0-3 hr ([1]; oral 1 mg/kg, Table 1 group b): 0.65 ± 0.06 mL
% Change in paw edema ([1]; oral 1 mg/kg, Table 1 group b): -36%
Change in paw volume (ml) from 0-3 hr ([1]; oral 3 mg/kg, Table 1 group b): 0.50 ± 0.07 mL
% Change in paw edema ([1]; oral 3 mg/kg, Table 1 group b): -51%
Change in paw volume (ml) from 0-3 hr ([1]; oral 5 mg/kg, Table 1 group e): 0.54 ± 0.08 mL
% Change in paw edema ([1]; oral 5 mg/kg, Table 1 group e): -53%
Change in paw volume (ml) from 0-3 hr ([1]; oral 9 mg/kg, Table 1 group b): 0.32 ± 0.02 mL
% Change in paw edema ([1]; oral 9 mg/kg, Table 1 group b): -69%
appreciable effects on prostaglandin synthetase activity (prostaglandin synthetase): appreciable effects on prostaglandin synthetase activity
gastric ulcerogenicity [2]: proven gastric ulcerogens
% Change of Left Paw Edema at Day 16 [3, 10]: +5.1%
% Change of Right Paw Edema at Day 4 [3, 10]: -31%
Change In Body Weight (mean ± S.E.) 0-16 days [3, 10]: 16.9 ± 9.0
Increase in Left Paw Volume (ml.) 0-16 days [3, 10]: 0.82 ± .12 mL
Increase in Right Paw Volume (ml.) 0-4 days [3, 10]: 1.07 ± .15 mL
% Change of Left Paw Edema at Day 16 [3, 11]: -33%
% Change of Right Paw Edema at Day 4 [3, 11]: -30%
Change In Body Weight (mean ± S.E.) 0-16 days [3, 11]: 25.7 ± 7.8
Increase in Left Paw Volume (ml.) 0-16 days [3, 11]: 0.52 ± .07 mL
Increase in Right Paw Volume (ml.) 0-4 days [3, 11]: 1.09 ± .06 mL
% Change of Left Paw Edema at Day 16 [3, 12]: -55%
% Change of Right Paw Edema at Day 4 [3, 12]: -42%
Change In Body Weight (mean ± S.E.) 0-16 days [3, 12]: 36.5 ± 7.9
Increase in Left Paw Volume (ml.) 0-16 days [3, 12]: 0.35 ± .03 mL
Increase in Right Paw Volume (ml.) 0-4 days [3, 12]: 0.90 ± .11 mL
% Change of Left Paw Edema at Day 16 [3, 13]: -65%
% Change of Right Paw Edema at Day 4 [3, 13]: -37%
Change In Body Weight (mean ± S.E.) 0-16 days [3, 13]: 49.8 ± 6.2
Increase in Left Paw Volume (ml.) 0-16 days [3, 13]: 0.27 ± .03 mL
Increase in Right Paw Volume (ml.) 0-4 days [3, 13]: 0.99 ± .05 mL
estimated ED50 (adjuvant arthritis test) ([3]; oral, daily): ~0.9 mg/kg
rats died by the 23rd day ([4]; 3.00 mg/kg, days 16, 17 and 18): six out of ten rats had died
% Change from Control, left paw edema (day 0-19) [4, 14]: -31%
% Change from Control, left paw edema (day 0-23) [4, 14]: +6%
% Change from Control, left paw edema (day 0-30) [4, 14]: -6%
Increase in left paw edema ml. (day 0-19) [4, 14]: 0.70 ± 0.11 mL
Increase in left paw edema ml. (day 0-23) [4, 14]: 1.02 ± 0.14 mL
Increase in left paw edema ml. (day 0-30) [4, 14]: 1.41 ± 0.20 mL
% Change from Control, left paw edema (day 0-19) [4, 15]: -40%
% Change from Control, left paw edema (day 0-23) [4, 15]: +4%
% Change from Control, left paw edema (day 0-30) [4, 15]: -22%
Increase in left paw edema ml. (day 0-19) [4, 15]: 0.62 ± 0.05 mL
Increase in left paw edema ml. (day 0-23) [4, 15]: 1.00 ± 0.06 mL
Increase in left paw edema ml. (day 0-30) [4, 15]: 1.18 ± 0.10 mL
% Change from Control, left paw edema (day 0-19) [4, 16]: -60%
Increase in left paw edema ml. (day 0-19) [4, 16]: 0.41 ± 0.06 mL
deaths (day 0-23) [4, 16]: 6/10
deaths (day 0-30) [4, 16]: 6/10
% Inhibition [5, 17]: 59%
Edema (ml) ± S.E. [5, 17]: 0.42 ± .09 mL
% Inhibition ([5]; Normal Rats, oral 5 mg/kg): 60%
Mean Edema (ml) ± S.E. ([5]; Normal Rats, oral 5 mg/kg): 0.42 ± .09 mL
inhibitory effect on prostaglandin synthesis in gastric mucosa [6]: marked inhibitory effect on prostaglandin synthesis in gastric mucosa
effects on the gastric tract ([7]; dosage levels indicated for treatment of inflammatory conditions): significant effects on the gastric tract
Number of Animals With Gastric Swelling ([7]; oral 2.5 mg/kg): 0/10
Number of Animals With Gastric Ulcers ([7]; oral 2.5 mg/kg): 0/9
Number of Animals With Gastric Swelling ([7]; oral 5.0 mg/kg): 0/10
Number of Animals With Gastric Ulcers ([7]; oral 5.0 mg/kg): 9/10
Number of Animals With Gastric Swelling ([7]; oral 10.0 mg/kg): 0/10
Number of Animals With Gastric Ulcers ([7]; oral 10.0 mg/kg): 10/10

CCCCC1C(=O)N(c2ccccc2)N(c2ccccc2)C1=O [Phenylbutazone, phenylbutazone, reference compound]
% Change of Left Paw Edema at Day 16 [3, 18]: -39%
% Change of Right Paw Edema at Day 4 [3, 18]: -44%
Change In Body Weight (mean ± S.E.) 0-16 days [3, 18]: 24.0 ± 6.3
Increase in Left Paw Volume (ml.) 0-16 days [3, 18]: 0.45 ± .13 mL
Increase in Right Paw Volume (ml.) 0-4 days [3, 18]: 1.04 ± .05 mL
bone marrow depression [8]: can cause bone marrow depression

CC(=O)Oc1ccccc1C(=O)O [Aspirin, aspirin, reference compound]
estimated ED50 (carrageenan paw edema) ([1]; oral): ~110 mg/kg
Change in paw volume (ml) from 0-3 hr ([1]; oral 30 mg/kg, Table 1 group d): 0.63 ± 0.02 mL
% Change in paw edema ([1]; oral 30 mg/kg, Table 1 group d): -28%
Change in paw volume (ml) from 0-3 hr ([1]; oral 90 mg/kg, Table 1 group d): 0.54 ± 0.04 mL
% Change in paw edema ([1]; oral 90 mg/kg, Table 1 group d): -39%
Change in paw volume (ml) from 0-3 hr [1, 19]: 0.29 ± 0.10 mL
% Change in paw edema [1, 19]: -67%
appreciable effects on prostaglandin synthetase activity (prostaglandin synthetase): appreciable effects on prostaglandin synthetase activity
gastric ulcerogenicity [2]: proven gastric ulcerogens
% Inhibition [5, 20]: 34%
Edema (ml) ± S.E. [5, 20]: 0.64 ± .04 mL
animals died ([5]; Adrenalectomized Rats, oral 300 mg/kg, footnote a): 1/6
% Inhibition ([5]; Normal Rats, oral 300 mg/kg): 44%
Mean Edema (ml) ± S.E. ([5]; Normal Rats, oral 300 mg/kg): 0.52 ± .07 mL
ED50 (adjuvant arthritis test), has been assessed [9]: approximately 140 mg/kg

COC(=O)C=C1c2ccccc2C=Cc2ccccc21 [MDCHA, Methyl(5H-dibenzo[a,d]cyclohepten-5-ylidene)acetate]
Change in paw volume (ml) from 0-3 hr ([1]; oral 60 mg/kg, Table 1 group f): 0.68 ± 0.08 mL
% Change in paw edema ([1]; oral 60 mg/kg, Table 1 group f): -8%
Change in paw volume (ml) from 0-3 hr [1, 21]: 0.59 ± 0.08 mL
% Change in paw edema [1, 21]: -20%
Change in paw volume (ml) from 0-3 hr [1, 22]: 0.68 ± 0.10 mL
% Change in paw edema [1, 22]: -8%
Change in paw volume (ml) from 0-3 hr [1, 23]: 0.59 ± 0.07 mL
% Change in paw edema [1, 23]: -20%

CCOC(=O)C=C1c2ccccc2C=Cc2ccccc21 [EDCHA, ethyl(5H-dibenzo[a,d]cyclohepten-5-ylidene)acetate]
oral doses that inhibit carrageenan paw edema ([1]; oral): 10 to 180 mg/kg
Change in paw volume (ml) from 0-3 hr ([1]; oral 20 mg/kg, Table 1 group e): 1.11 ± 0.08 mL
% Change in paw edema ([1]; oral 20 mg/kg, Table 1 group e): -4%
Change in paw volume (ml) from 0-3 hr ([1]; oral 60 mg/kg, Table 1 group e): 0.98 ± 0.06 mL
% Change in paw edema ([1]; oral 60 mg/kg, Table 1 group e): -15%
Change in paw volume (ml) from 0-3 hr [1, 24]: 0.87 ± 0.04 mL
% Change in paw edema [1, 24]: -25%
